Usually IC50 stands for the concentration that inhibits the measured activity by half.

We go through 28 molecules from US5317019A, “Inhibition of interleukin-1 and tumor necrosis factor production by monocytes and/or macrophages” (priority 1991, dated 1994).

Experiment [1] has as its system IL-1 production by human monocytes. Briefly: In vitro IL-1 production by LPS-stimulated human monocytes. The experiment is classed as cell-based. As to the method:
Bacterial lipopolysaccharide (LPS) was used to induce IL-1 production by human peripheral blood monocytes. IL-1 activity was measured by its ability to stimulate a Interleukin 2 (IL-2) producing cell line […] to secrete IL-2, in concert with A23187 ionophore, according to the method of Simon et al., J. Immunol. […] The cells were allowed to adhere for 2 hours, after which time non-adherent cells were removed by gentle washing. […] At the end of the incubation period, culture supernatants were removed and clarified of cells and all debris.

In experiment [2] the test system is TNF production by human monocytes. Nature of the experiment: In vitro TNF production by LPS-stimulated human monocytes (ELISA). Format: cell-based. The following applies: Table B, LPS 50 ng/ml, 24 h, read-out: IC50, LPS induced TNF human monocyte data. The protocol: The effects of the compounds enumerated above on the in vitro production of TNF by human monocytes was examined using the following protocol.
Bacterial lipopolysaccharide (LPS) was used to induce TNF production by human peripheral blood monocytes. TNF activity was measured by a modification of Winston et al., ELISA, described below. […] The cells were allowed to adhere for 2 hours, after which time non-adherent cells were removed by gentle washing. […] At the end of the incubation period, culture supernatants were removed and clarified of cells and all debris. Culture supernatants were immediately assayed for TNF levels in the manner described below.
The Elisa employes a murine monoclonal anti-human TNF antibody, described below, as the capture antibody and a polyclonal rabbit anti-human TNF, described below, as the second antibody. […] TNF levels in samples were calculated from a standard curve genereated with recombinant human TNF produced in E. Coli (obtained from SmithKIine Beecham Pharmaceuticals, King of Prussia, Pa., USA).
Polyclonal rabbit anti-human TNF antibodies were prepared by repeated immunization of New Zeland White (NZW) rabbits with recombinant human TNF emulsified in complete Freund's adjuvant (DEFCO, Ill., USA).

Setting [3] is: Homo sapiens, Monocyte, Table 1, LPS 50 ng/ml, 24 h, read-out: IC50, effect on LPS-stimulated IL-1 production by human monocytes.
Where [4] appears, read: Homo sapiens, Monocyte, Table 3, read-out: IC50, inhibition of IL-1 production by LPS stimulated monocytes in vitro.
Setting [5] is: Table 3, read-out: IC50, inhibition of IL-1 production by LPS stimulated monocytes in vitro.

Like-named read-outs stand apart in the source and are kept apart here. Some results are limits rather than exact numbers.

Regarding `COc1ccc(-c2nc3ccccn3c2-c2ccncc2)cc1` [Compound 7, 2-(4-methoxyphenyl)-3-(4-pyridyl)-imidazo-[1,2-a]-pyridine], the IC50 in experiment [1] (setting [3]) stood at 1 µM.

Take `COc1ccc(-c2c(-c3ccncc3)nc3n2CCS3)cc1` [Compound 26, 5-(4-Methoxyphenyl)-6-(4-pyridyl)-2,3-dihydroimidazole-[2,1-b]-thiazole]: the IC50 in experiment [1] (setting [4]) was no less than 10 µM.

For “2-[Trimethylacetyl(thiophenyl)]-3-(4-pyridyl)-6,7-dihydro[5H]pyrrolo-[1,2-a]-imidazole [Compound 16]”, the IC50 in experiment [1] (setting [5]) was greater than 10 µM.

`COc1ccc(-c2c(-c3ccncc3)n3c([n+]2C)CCC3)cc1` [Compound 21, 2-(4-Methoxyphenyl)-3-(4-pyridyl)-6,7-dihydro-[5H]-pyrrolo-[1,2-a]-N-methylimidazole, monomethylsulfate]: in experiment [1] (setting [5]), the IC50 was greater than 10 µM.

Take `CCCOc1ccc(-c2nc3n(c2-c2ccncc2)CCC3)cc1` [Compound 19, 2-(4-(1-Propoxy)phenyl)-3-(4-pyridyl)-6,7-dihydro[5H]pyrrolo-[1,2-a]-imidazole]: the IC50 in experiment [1] (setting [4]) was greater than 10 µM.

As to “2-(Acetyl-thio-phenyl)-3-(4-pyridyl)-6,7-dihydro[5H]-pyrrolo-[1,2-a]-imidazole [Compound 20]”, the half-inhibitory concentration (IC50) in experiment [1] (setting [5]) was greater than 10 µM.

Turning to `CCCSc1ccc(-c2nc3n(c2-c2ccncc2)CCC3)cc1` [Compound 14, 2-(4-propylthiophenyl)-3-(4-pyridyl)-6,7-dihydro-[5H]-pyrrolo-[1,2-a]-imidazole], in experiment [1] (setting [3]), the IC50 was greater than 10 µM.

On to `COc1ccc(-c2nc3n(c2-c2ccncc2)CCC3=O)cc1` [Compound E, 2-(4-Methoxyphenyl)-3-(4-pyridyl)-7-oxo-5,6-dihydro-7-H-pyrrolo-[1,2-a]imidazole], for which the IC50 in experiment [2] (Homo sapiens, Monocyte) turned out to be 1 µM.

In the case of `COc1ccc(-c2nc3n(c2-c2ccnc(C)c2)CCC3)cc1` [Compound 9, 2-(4-methoxyphenyl)-3-(4-(2-methyl)pyridyl)-6,7-dihydro-[5H]-pyrrolo-[1,2-a]-imidazole], the IC50 in experiment [1] (setting [3]) was found to be 0.7 µM.

Turning to `CSc1ccc(-c2c(-c3ccncc3)nc3n2CCC3)cc1` [Compound 13, 3-(4-methylthiophenyl)-2-(4-pyridyl)-6,7-dihydro-[5H]-pyrrolo-[1,2-a]-imidazole], the IC50 in experiment [1] (setting [3]) was 2 µM.

With `CCOc1ccc(-c2nc3n(c2-c2ccncc2)CCC3)cc1` [Compound 18, 2-(4-(1-Ethoxy)phenyl)-3-(4-pyridyl)-6,7-dihydro[5H]pyrrolo-[1,2-a]-imidazole], the half-maximal inhibitory concentration (IC50) in experiment [1] (setting [4]) is 10 µM.

On to `Brc1ccc(-c2nc3n(c2-c2ccncc2)CCC3)cc1` [Compound 27, 2-(4-Bromophenyl)-3-(4-pyridyl)-6,7-dihydro-[5H]-pyrrolo-[1,2-a]-imidazole], for which, in experiment [1] (setting [4]), the IC50 is 0.7 µM.

Consider `[O-][S+]1CCn2c1nc(-c1ccc(F)cc1)c2-c1ccncc1` (stereo not drawn) [Compound I, 6-(4-Fluorophenyl)-5-(4'-pyridyl)-2,3-dihydroimidazo[2,1-b]thiazole-1-oxide], for which the IC50 in experiment [2] (Homo sapiens, Monocyte) worked out at 0.2 µM.

Turning to `CSc1ccc(-c2nc3n(c2-c2ccncc2)CCS3)cc1` [Compound 11, 6-(4-methylthiophenyl)-5-(4-pyridyl)-2,3-dihydro-imidazo-[2,1-b]-thiazole], in experiment [1] (setting [3]), the IC50 was 1.8 µM.

For the molecule “2-phenyl-3-pyridyl-6,7-dihydro-[5H]-pyrrolo[1,2-a]imidazole [Compound C]”, the IC50 in experiment [2] stood at 0.8 µM.

On to `CC(C)Oc1ccc(-c2nc3n(c2-c2ccncc2)CCC3)cc1` [Compound 17, 2-(4-(2-Propoxy)phenyl)-3-(4-pyridyl)-6,7-dihydro-[5H]-pyrrolo-[1,2-a]-imidazole], for which, in experiment [1] (setting [4]), the IC50 is greater than 10 µM.

As for `COc1ccc(-c2nc3n(c2-c2ccncc2)CCC3)cc1` [Compound 24, 2-(4-Methoxyphenyl)-3-(4-pyridyl)-6,7-dihydro-[5H]-pyrrolo-[1,2-a]-imidazole], the half-maximal inhibitory concentration (IC50) is 0.1 µM in experiment [1] (setting [4]) and 0.5 µM in experiment [2] (Homo sapiens, Monocyte).

As to `COc1ccc(-c2nc3n(c2-c2ccncc2)CCS3)cc1` [Compound 25, 6-(4-Methoxyphenyl)-5-(4-pyridyl)-2,3-dihydroimidazo-[2,1-b]-thiazole], the half-maximal inhibitory concentration (IC50) in experiment [1] (setting [4]) was found to be 3 µM.

Consider `COc1ccc(-c2nc3n(c2-c2ccncc2)CCC3O)cc1` (stereo not drawn) [Compound F, 5,6-dihydro-2-(4-methoxyphenyl)-3-(4-pyridinyl)-[7H]-pyrrolo[1,2-a]-imidazole-7-ol], for which the IC50 in experiment [2] (Homo sapiens, Monocyte) stood at 1 µM.

As to `c1ccc(-c2nc3n(c2-c2ccncc2)CCC3)cc1` [Compound 22, 2-Phenyl-3-(4-pyridyl)-6,7-dihydro-[5H]-pyrrolo-[1,2-a]imidazole], the IC50 in experiment [1] (setting [4]) came out at 0.5 µM.

As to `CC(=O)OCSc1ccc(-c2nc3n(c2-c2ccncc2)CCC3)cc1` [Compound 10, 2-(4-acetoxymethylthiophenyl)-3-(4-pyridyl)-6,7-dihydro-[5H]-pyrrolo-[1,2-a]-imidazole], the IC50 in experiment [1] (setting [3]) was determined as 6.3 µM; in experiment [2] (Homo sapiens, Monocyte) it was 3 µM.

`c1cc(-c2c(-c3ccc(SSc4ccc(-c5nc6n(c5-c5ccncc5)CCC6)cc4)cc3)nc3n2CCC3)ccn1` [Compound 23, 2-(4-Mercaptophenyl)-3-(4-pyridyl)-6,7-dihydro-[5H]-pyrrolo-[1,2-a]-imidazole disulfide]: the IC50 in experiment [1] (setting [4]) is 5.9 µM.

For the molecule “2-p-bromophenyl-3-pyridyl-6,7-dihydro-[5H]-pyrrolo-[1,2-a]-imidazole [Compound D]”, in experiment [2], the IC50 came out at 1 µM.

In the case of `c1cc(-c2nc3n(c2-c2ccc4c(c2)OCO4)CCS3)ccn1` [Compound 8, 5-(3,4-(methylenedioxy)phenyl)-6-(4-pyridyl)-2,3-dihydroimidazo-[2-1-b]-thiazole], the IC50 in experiment [1] (setting [3]) came to 10 µM.

On to `CSc1ccc(-c2c(-c3ccncc3)nc3n2CCS3)cc1` [Compound 12, 5-(4-methylthiophenyl)-6-(4-pyridyl)-2,3-dihydro-imidazo-[2,1-b]-thiazole], for which the half-maximal inhibitory concentration (IC50) in experiment [1] (setting [3]) was found to be 1.8 µM.

`CCc1cc(-c2c(-c3ccc(SC)cc3)nc3n2CCC3)ccn1` [Compound 15, 2-(4-methylthiophenyl)-3-(4-(2-ethyl)pyridyl)-6,7-dihydro-[5H]-pyrrolo-[1,2-a-]-imidazole]: in experiment [1] (setting [3]), the IC50 was found to be 1.3 µM.

For the molecule `Fc1ccc(-c2nc3n(c2-c2ccncc2)CCC3)cc1` [Compound M, 2-(4-Fluorophenyl)-3-(4-pyridyl)-6,7-dihydro-[5H]-pyrrolo-[1,2-a]-imidazole], the IC50 in experiment [2] (Homo sapiens, Monocyte) is 0.2 µM.

With `Fc1ccc(-c2c(-c3ccncc3)nc3n2CCC3)cc1` [Compound N, 3-(4-Fluorophenyl)-2-(4-pyridyl)-6,7-dihydro-[5H]-pyrrolo-[1,2-a]-imidazole], the IC50 in experiment [2] (Homo sapiens, Monocyte) turned out to be 1 µM.
